Source: patent US6436980B1, “Peptidomimetic efflux pump inhibitors” (priority 1998, dated 2002)

System: Pseudomonas aeruginosa PAM1001
Assay: Checkerboard assay (broth microdilution): levofloxacin MIC in presence of efflux pump inhibitor
Format: cell-based
Experimental: Potentiation effect is observed by the reduction of the minimum inhibitory concentration of levofloxacin in the presence of the experimental efflux pump inhibitor. The activity of efflux pump inhibitors (EPI) in combination with fluoroquinolones, such as levofloxacin, is assessed by the checkerboard assay (Antimicrobial Combinations. In Antibiotics in Laboratory Medicine, Ed. Victor Lorian, M.D., Fourth edition, 1996, pp 333-338) using broth microdilution method performed as recommended by the NCCLS (National Committee for Clinical Laboratory Standards (NCCLS). 1997. Methods for Dilution of Antimicrobial Susceptibility Tests for Bacteria That Grow Aerobically—Fourth Edition; Approved Standard. NCCLS Document M7-A4, Vol 17 No.2). The test organism used is Pseudomonas aeruginosa PAM1001. […] The compounds tabulated below are representative of the described invention.
In this assay, multiple dilutions of two drugs, namely the EPI and levofloxacin, are being tested, alone and in combination, at concentrations equal to, above and below their respective minimal inhibitory concentrations (MICs). In the case of EPI, most of these compounds are devoid of intrinsic antimicrobial activity and are tested at the maximum concentration of 40 μg/mL. The MIC of levofloxacin against P. aeruginosa PAM1001 is 4 μg/mL.
The EPI tested are readily soluble in water and stock solutions are prepared at a final concentration of 2 mg/mL. Stock solutions are further diluted, according to the needs of a particular assay, in Mueller Hinton Broth (MHB). Stock solution can be stored at −80° C. Quinolones are solubilized according to the instructions of the manufacturers, at a concentration of 1 mg/mL. They are then further diluted in MB. Stock solution can be stored at −80° C.
The checkerboard assay is performed in microtiter plates. Levofloxacin is diluted in the x axis, each column containing a single concentration of levofloxacin. The EPI is diluted in the y axis, each row containing an equal concentration of EPI. The result of these manipulations is that each well of the microtiter plate contains a unique combination of concentrations of the two agents. Each EPI are tested independently.
The assay is performed in MHB with a final bacterial inoculum of 5×10^5 CFU/mL (from an early-log phase culture). Microtiter plates are incubated during 20 h at 35° C. and are read using a microtiterplate reader (Molecular Devices) at 650 nm as well as visual observation using a microtiter plate reading mirror.

`NCCC[C@@H](N)C(=O)N[C@H](CCc1ccccc1)C(O)c1nc2ncccc2o1.O=C(O)C(F)(F)F` (mixture of isomers) [Compound 36, (2R)-2,5-Diamino-N-[(1R)-1-[(RS)-(1-oxazolo[4,5-b]pyridin-2-yl)-hydroxymethyl]-3-phenylpropyl]valeramide Trifluoroacetate] was tested, and the “Levofloxacin MIC Against P. aeruginosa PAM1001 in Presence of Efflux Pump Inhibitor (EPI), Minimum Inhibitory Concentration” value (EPI Conc. 0 μg/mL (levofloxacin alone)) was 4 µg/mL, the “Levofloxacin MIC Against P. aeruginosa PAM1001 in Presence of Efflux Pump Inhibitor (EPI), Minimum Inhibitory Concentration” value (EPI Conc. 0.625 μg/mL) was 4 µg/mL and the “Levofloxacin MIC Against P. aeruginosa PAM1001 in Presence of Efflux Pump Inhibitor (EPI), Minimum Inhibitory Concentration” value (EPI Conc. 1.25 μg/mL) was 4 µg/mL. The “Levofloxacin MIC Against P. aeruginosa PAM1001 in Presence of Efflux Pump Inhibitor (EPI), Minimum Inhibitory Concentration” value (EPI Conc. 2.5 μg/mL) was 4 µg/mL, the “Levofloxacin MIC Against P. aeruginosa PAM1001 in Presence of Efflux Pump Inhibitor (EPI), Minimum Inhibitory Concentration” value (EPI Conc. 5 μg/mL) was 4 µg/mL and the “Levofloxacin MIC Against P. aeruginosa PAM1001 in Presence of Efflux Pump Inhibitor (EPI), Minimum Inhibitory Concentration” value (EPI Conc. 10 μg/mL) was 4 µg/mL. For the same compound, the “Levofloxacin MIC Against P. aeruginosa PAM1001 in Presence of Efflux Pump Inhibitor (EPI), Minimum Inhibitory Concentration” value (EPI Conc. 20 μg/mL) was 2 µg/mL and the “Levofloxacin MIC Against P. aeruginosa PAM1001 in Presence of Efflux Pump Inhibitor (EPI), Minimum Inhibitory Concentration” value (EPI Conc. 40 μg/mL) was 2 µg/mL.
`C[C@H]1COc2c(N3CCN(C)CC3)c(F)cc3c(=O)c(C(=O)O)cn1c23` [levofloxacin, reference compound] was tested, and the MIC (Pseudomonas aeruginosa, PAM1001, read-out: MIC of levofloxacin against P. aeruginosa PAM1001) was 4 µg/mL.
